The values that follow come from BindingDB's records for doi:10.1021/ml400144e (Riken, 2013).

This experiment has as its target T1, NF-kappa-B inhibitor alpha (Homo sapiens, UniProt P25963).
T1 sequence (P25963 whole entry): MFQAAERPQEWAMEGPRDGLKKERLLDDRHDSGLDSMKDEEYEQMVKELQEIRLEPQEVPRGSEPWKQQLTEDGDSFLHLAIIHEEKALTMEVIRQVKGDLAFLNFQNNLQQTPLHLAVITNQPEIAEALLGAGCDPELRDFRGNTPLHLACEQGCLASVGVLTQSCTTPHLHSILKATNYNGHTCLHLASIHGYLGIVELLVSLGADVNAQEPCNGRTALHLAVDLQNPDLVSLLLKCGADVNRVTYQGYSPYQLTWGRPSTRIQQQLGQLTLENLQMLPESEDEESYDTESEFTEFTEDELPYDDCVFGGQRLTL
Kind of experiment: Inhibition of TNFalpha-induced IkappaBalpha (unknown origin) phosphorylation expressed in human HeLa cells pretreated 30 mins before TNFalpha addition measured up to 120 mins by ELISA in presence of proteasome inhibitor MG-132. (In general: In an ELISA, binding on a coated surface is turned into a signal by an enzyme label.)

On to `C[C@]12C(=O)C=CCC1=CC[C@@H]1[C@@H]2CC[C@]2(O)C(=O)O[C@@]3(C)[C@H]4C[C@]5(C)[C@@H](CO[C@@]16O[C@@]32[C@H]5C6=O)C(=O)O4` [NSC-287088], for which the IC50 was found to be 37.5 µM.
To `C=C1C(=O)O[C@@H]2C[C@@]1(C)[C@@H]1C(=O)[C@]3(O)O[C@]14[C@@]2(C)OC(=O)[C@@]4(O)CC[C@H]1[C@H]3CC=C2CC=CC(=O)[C@@]21C` belongs 26.2 µM; to `C[C@H]1C(=O)OC[C@H]1C[C@@H](O)[C@](C)(O)[C@@]1(O)CC[C@@]2(O)[C@@H]3CC=C4CC=CC(=O)[C@]4(C)[C@H]3CC[C@]12C`, greater than 50 µM; to `C=C1C(=O)O[C@@H]2C[C@@]1(C)[C@@H]1C(=O)[C@]3(O)O[C@]14[C@@]2(C)OC(=O)[C@@]4(O)CC[C@H]1[C@H]3[C@H](O)C=C2CC=CC(=O)[C@@]21C` [PHYSALIN A], greater than 50 µM.
Under `C[C@H]1C(=O)OC[C@H]1C[C@@H](O)[C@](C)(O)[C@]1(O)CC[C@@]2(O)[C@@H]3CC=C4CC=CC(=O)[C@]4(C)[C@H]3CC[C@]12C` stands greater than 50 µM; under `C[C@@]12C[C@H]3OC(=O)[C@]1(O)CO[C@]14O[C@@]5([C@H]2C1=O)[C@@]3(C)OC(=O)[C@@]5(O)CC[C@H]1[C@H]4C[C@H]2O[C@]23CC=CC(=O)[C@]13C` [25-HYDROXY PHYSALIN F], 30.1 µM; under `C[C@]12C(=O)C=CCC1=C[C@@H](O)[C@@H]1[C@@H]2CC[C@@]2(O)C(=O)O[C@@]3(C)[C@H]4C[C@]5(C)[C@@H](CO[C@@]16O[C@]23[C@H]5C6=O)C(=O)O4`, greater than 50 µM.
Turning to `C[C@@]12C[C@H]3OC(=O)[C@]1(O)CO[C@]14O[C@@]5([C@H]2C1=O)[C@@]3(C)OC(=O)[C@@]5(O)CC[C@H]1[C@H]4C[C@@H]2O[C@@]23CC=CC(=O)[C@]13C` [25-HYDROXY PHYSALIN J], the IC50 was greater than 50 µM.
Under `CC1=C(C)C(=O)O[C@@H]([C@](C)(O)[C@]2(O)CC[C@@]3(O)[C@@H]4CC=C5CC=CC(=O)[C@]5(C)[C@H]4CC[C@]23C)C1` [WITHANOLIDE F] stands greater than 50 µM.
Consider `C[C@@]12C[C@H]3OC(=O)[C@@H]1CO[C@@]14O[C@]5(C2C1=O)[C@@](O)(CC[C@H]1[C@H]4C[C@@H]2O[C@@]24CC=CC(=O)[C@]14C)C(=O)O[C@@]35C` [PHYSALIN J], for which the half-inhibitory concentration (IC50) was greater than 50 µM.
Take `CC1=C(C)C(=O)O[C@@H]([C@](C)(O)C2=CC[C@@]3(O)[C@@H]4CC=C5CC=CC(=O)[C@]5(C)[C@H]4CC[C@]23C)C1`: the half-maximal inhibitory concentration (IC50) is greater than 50 µM.
On to `C[C@@]12C[C@H]3OC(=O)[C@@H]1CO[C@]14O[C@]5([C@H]2C1=O)[C@@](O)(CC[C@H]1[C@H]4C[C@H]2O[C@]24CC=CC(=O)[C@]14C)C(=O)O[C@@]35C` [PHYSALIN F], for which the IC50 was 27.1 µM.
To `CC1=C(C)C(=O)O[C@@H]([C@](C)(O)[C@]2(O)CC[C@@]3(O)[C@@H]4C[C@H]5O[C@]56CC=CC(=O)[C@]6(C)[C@H]4CC[C@]23C)C1` [WITHANOLIDE E] belongs 18 µM; to `CC1=C(C)C(=O)O[C@@H]([C@](C)(O)[C@H]2CC[C@@]3(O)[C@@H]4CC=C5CC=CC(=O)[C@]5(C)[C@H]4CC[C@]23C)C1`, greater than 50 µM; to `C[C@]12C(=O)C=CCC1=CC[C@@H]1[C@@H]2CC[C@]2(O)C(=O)O[C@@]3(C)[C@H]4C[C@@](C)([C@@H]5C(=O)[C@]1(O)O[C@@]532)[C@](C)(O)C(=O)O4`, greater than 50 µM.
As to `C[C@@H]1C(=O)O[C@@H]2C[C@@]1(C)[C@@H]1C(=O)[C@]3(O)O[C@]14[C@@]2(C)OC(=O)[C@@]4(O)CC[C@H]1[C@H]3[C@H](O)C=C2CC=CC(=O)[C@@]21C` [PHYSALIN O], the IC50 was greater than 50 µM.

As a reminder, the IC50 is the concentration that inhibits the measured activity by half.
